According to ChEMBL document CHEMBL5625252, “Synthesis of peptidomimetics as antibiotic adjuvants for combination with aztreonam to combat MDR Pseudomonas aeruginosa” (Eur J Med Chem, 2023):
Converted amounts (≈) assume the structure as drawn. Where a SMILES comes first, the peptide text is derived from it. The star is where a group is joined. βNA = c1ccc2cc(N*)ccc2c1

Legend:
Pseudomonas aeruginosa [1] = experiment: Antibacterial activity against Pseudomonas aeruginosa 16-11 in CAMH broth medium supplemented with 0.41 to 0.51 mM Mg2+ by checkerboard assay; assay type: functional
Pseudomonas aeruginosa [2] = experiment: Synergistic antibacterial activity against Pseudomonas aeruginosa PAO1 assessed as fractional inhibitory concentration index incubated for 18 hrs in presence of aztreonam by checkerboard method; assay type: functional
[3] = Cytotoxicity against HEK293 cells incubated for 24 hrs by MTT assay; assay type: toxicity, cell-based; conditions: human
[4] = Cytotoxicity against human LX2 cells incubated for 24 hrs by MTT assay; assay type: toxicity, cell-based; conditions: LX-2 cells
Pseudomonas aeruginosa [5] = experiment: Antibacterial activity against Pseudomonas aeruginosa 23-Y417 assessed as inhibition of bacterial growth incubated for 18 hrs by agar dilution method; assay type: functional
Pseudomonas aeruginosa [6] = experiment: Antibacterial activity against Pseudomonas aeruginosa 21-2 assessed as inhibition of bacterial growth incubated for 18 hrs by agar dilution method; assay type: functional
Pseudomonas aeruginosa [7] = experiment: Antibacterial activity against Pseudomonas aeruginosa 23-Y364 assessed as inhibition of bacterial growth incubated for 18 hrs by agar dilution method; assay type: functional
Pseudomonas aeruginosa [8] = experiment: Synergistic antibacterial activity against Pseudomonas aeruginosa 12-1 assessed as aztreonam MIC at 128 ug/ml incubated for 18 hrs by checkerboard method; assay type: functional; conditions: dose 128 µg/ml
Pseudomonas aeruginosa [9] = experiment: Synergistic antibacterial activity against Pseudomonas aeruginosa 16-11 assessed as fractional inhibitory concentration index at 128 ug/ml incubated for 18 hrs in presence of aztreonam by checkerboard method; assay type: functional; conditions: dose 128 µg/ml
Pseudomonas aeruginosa [10] = experiment: Synergistic antibacterial activity against Pseudomonas aeruginosa 21-8 assessed as fractional inhibitory concentration index at 128 ug/ml incubated for 18 hrs in presence of aztreonam by checkerboard method; assay type: functional; conditions: dose 128 µg/ml
Pseudomonas aeruginosa [11] = experiment: Synergistic antibacterial activity against Pseudomonas aeruginosa 23-Y122 assessed as fractional inhibitory concentration index at 128 ug/ml incubated for 18 hrs in presence of aztreonam by checkerboard method; assay type: functional; conditions: dose 128 µg/ml
Pseudomonas aeruginosa [12] = experiment: Synergistic antibacterial activity against Pseudomonas aeruginosa 23-Y417 assessed as fractional inhibitory concentration index at 128 ug/ml incubated for 18 hrs in presence of aztreonam by checkerboard method; assay type: functional; conditions: dose 128 µg/ml
Pseudomonas aeruginosa [13] = experiment: Synergistic antibacterial activity against Pseudomonas aeruginosa 12-1 assessed as fractional inhibitory concentration index at 128 ug/ml incubated for 18 hrs in presence of aztreonam by checkerboard method; assay type: functional; conditions: dose 128 µg/ml
Pseudomonas aeruginosa [14] = experiment: Synergistic antibacterial activity against Pseudomonas aeruginosa 13-3 assessed as fractional inhibitory concentration index at 128 ug/ml incubated for 18 hrs in presence of aztreonam by checkerboard method; assay type: functional; conditions: dose 128 µg/ml
Pseudomonas aeruginosa [15] = experiment: Synergistic antibacterial activity against Pseudomonas aeruginosa 13-17 assessed as fractional inhibitory concentration index at 128 ug/ml incubated for 18 hrs in presence of aztreonam by checkerboard method; assay type: functional; conditions: dose 128 µg/ml
Pseudomonas aeruginosa [16] = experiment: Synergistic antibacterial activity against Pseudomonas aeruginosa 16-2 assessed as fractional inhibitory concentration index at 128 ug/ml incubated for 18 hrs in presence of aztreonam by checkerboard method; assay type: functional; conditions: dose 128 µg/ml
Pseudomonas aeruginosa [17] = experiment: Synergistic antibacterial activity against Pseudomonas aeruginosa 23-Y539 assessed as fractional inhibitory concentration index at 128 ug/ml incubated for 18 hrs in presence of aztreonam by checkerboard method; assay type: functional; conditions: dose 128 µg/ml
Pseudomonas aeruginosa [18] = experiment: Synergistic antibacterial activity against Pseudomonas aeruginosa 19-55 assessed as fractional inhibitory concentration index at 128 ug/ml incubated for 18 hrs in presence of aztreonam by checkerboard method; assay type: functional; conditions: dose 128 µg/ml
Pseudomonas aeruginosa [19] = experiment: Synergistic antibacterial activity against Pseudomonas aeruginosa 21-7 assessed as fractional inhibitory concentration index at 128 ug/ml incubated for 18 hrs in presence of aztreonam by checkerboard method; assay type: functional; conditions: dose 128 µg/ml
Pseudomonas aeruginosa [20] = experiment: Synergistic antibacterial activity against Pseudomonas aeruginosa 23-Y364 assessed as fractional inhibitory concentration index at 128 ug/ml incubated for 18 hrs in presence of aztreonam by checkerboard method; assay type: functional; conditions: dose 128 µg/ml
Pseudomonas aeruginosa [21] = experiment: Antibacterial activity against Pseudomonas aeruginosa PAO1 assessed as fractional inhibitory concentration index upto 128 ug/ml incubated for 18 hrs in presence of aztreonam by checkerboard method; assay type: functional; conditions: dose <= 128 µg/ml
Pseudomonas aeruginosa [22] = experiment: Antibacterial activity against Pseudomonas aeruginosa 13-35 in CAMH broth medium supplemented with 0.41 to 0.51 mM Mg2+ by checkerboard assay; assay type: functional
Pseudomonas aeruginosa [23] = experiment: Antibacterial activity against Pseudomonas aeruginosa 12-1 in CAMH broth medium supplemented with 0.41 to 0.51 mM Mg2+ by checkerboard assay; assay type: functional
Pseudomonas aeruginosa [24] = experiment: Antibacterial activity against Pseudomonas aeruginosa PAO1 in CAMH broth medium supplemented with 20.99 to 21.09 mM Mg2+ by checkerboard assay; assay type: functional
Pseudomonas aeruginosa [25] = experiment: Antibacterial activity against Pseudomonas aeruginosa 16-11 in CAMH broth medium supplemented with 20.99 to 21.09 mM Mg2+ by checkerboard assay; assay type: functional
Pseudomonas aeruginosa [26] = experiment: Antibacterial activity against Pseudomonas aeruginosa 13-35 in CAMH broth medium supplemented with 20.99 to 21.09 mM Mg2+ by checkerboard assay; assay type: functional
Pseudomonas aeruginosa [27] = experiment: Synergistic antibacterial activity against Pseudomonas aeruginosa PAO1 in CAMH broth medium supplemented with 0.41 to 0.51 mM Mg2+ in presence of aztreonam by checkerboard assay; assay type: functional
Pseudomonas aeruginosa [28] = experiment: Synergistic antibacterial activity against Pseudomonas aeruginosa 16-11 in CAMH broth medium supplemented with 0.41 to 0.51 mM Mg2+ in presence of aztreonam by checkerboard assay; assay type: functional
Pseudomonas aeruginosa [29] = experiment: Synergistic antibacterial activity against Pseudomonas aeruginosa 13-35 in CAMH broth medium supplemented with 0.41 to 0.51 mM Mg2+ in presence of aztreonam by checkerboard assay; assay type: functional
Pseudomonas aeruginosa [30] = experiment: Synergistic antibacterial activity against Pseudomonas aeruginosa 12-1 in CAMH broth medium supplemented with 0.41 to 0.51 mM Mg2+ in presence of aztreonam by checkerboard assay; assay type: functional
Pseudomonas aeruginosa [31] = experiment: Synergistic antibacterial activity against Pseudomonas aeruginosa PAO1 in CAMH broth medium supplemented with 20.99 to 21.09 mM Mg2+ in presence of aztreonam by checkerboard assay; assay type: functional
Pseudomonas aeruginosa [32] = experiment: Synergistic antibacterial activity against Pseudomonas aeruginosa 16-11 in CAMH broth medium supplemented with 20.99 to 21.09 mM Mg2+ in presence of aztreonam by checkerboard assay; assay type: functional
Pseudomonas aeruginosa [33] = experiment: Synergistic antibacterial activity against Pseudomonas aeruginosa 12-1 in CAMH broth medium supplemented with 20.99 to 21.09 mM Mg2+ in presence of aztreonam by checkerboard assay; assay type: functional
Pseudomonas aeruginosa [34] = experiment: Synergistic antibacterial activity against Pseudomonas aeruginosa 16-11 assessed as fractional inhibitory concentration index in CAMH broth medium supplemented with 0.41 to 0.51 mM Mg2+ in presence of aztreonam by checkerboard assay; assay type: functional
Pseudomonas aeruginosa [35] = experiment: Synergistic antibacterial activity against Pseudomonas aeruginosa 12-1 assessed as fractional inhibitory concentration index in CAMH broth medium supplemented with 0.41 to 0.51 mM Mg2+ in presence of aztreonam by checkerboard assay; assay type: functional
Pseudomonas aeruginosa [36] = experiment: Synergistic antibacterial activity against Pseudomonas aeruginosa PAO1 assessed as fractional inhibitory concentration index in CAMH broth medium supplemented with 20.99 to 21.09 mM Mg2+ in presence of aztreonam by checkerboard assay; assay type: functional
Pseudomonas aeruginosa [37] = experiment: Synergistic antibacterial activity against Pseudomonas aeruginosa 12-1 assessed as fractional inhibitory concentration index in CAMH broth medium supplemented with 20.99 to 21.09 mM Mg2+ in presence of aztreonam by checkerboard assay; assay type: functional

| Compound | MIC (Pseudomonas aeruginosa [1]) | fractional inhibitory concentration index (FICI) (Pseudomonas aeruginosa [2]) | CC50 at 24 h [3] | CC50 at 24 h [4] | MIC (Pseudomonas aeruginosa [6]) | MIC (Pseudomonas aeruginosa [7]) | MIC (Pseudomonas aeruginosa [8]) | fractional inhibitory concentration index (FICI) (Pseudomonas aeruginosa [9]) | fractional inhibitory concentration index (FICI) (Pseudomonas aeruginosa [10]) | fractional inhibitory concentration index (FICI) (Pseudomonas aeruginosa [11]) | fractional inhibitory concentration index (FICI) (Pseudomonas aeruginosa [12]) | fractional inhibitory concentration index (FICI) (Pseudomonas aeruginosa [13]) | fractional inhibitory concentration index (FICI) (Pseudomonas aeruginosa [14]) | fractional inhibitory concentration index (FICI) (Pseudomonas aeruginosa [15]) | fractional inhibitory concentration index (FICI) (Pseudomonas aeruginosa [16]) | fractional inhibitory concentration index (FICI) (Pseudomonas aeruginosa [17]) | fractional inhibitory concentration index (FICI) (Pseudomonas aeruginosa [18]) | fractional inhibitory concentration index (FICI) (Pseudomonas aeruginosa [19]) | fractional inhibitory concentration index (FICI) (Pseudomonas aeruginosa [20]) | fractional inhibitory concentration index (FICI) (Pseudomonas aeruginosa [21]) | further results |
| --- | --- | --- | --- | --- | --- | --- | --- | --- | --- | --- | --- | --- | --- | --- | --- | --- | --- | --- | --- | --- | --- |
| NCCC[C@H](NC(=O)C[C@@H](N)Cc1ccccc1)C(=O)Nc1ccc2ccccc2c1 | 512 µg/mL | 0.375 | > 100 µM | > 100 µM | > 512 µg/mL | > 512 µg/mL | 16 µg/mL | 0.5 | <0.5 | 1.25 | <0.5 | 0.5 | 0.375 | 0.313 | 0.5 | 0.313 | 0.313 | 0.5 | <0.281 | <0.375 | MIC (Pseudomonas aeruginosa [5]): > 512 µg/mL; MIC (Pseudomonas aeruginosa [22]): 512 µg/mL; MIC (Pseudomonas aeruginosa [23]): 512 µg/mL; MIC (Pseudomonas aeruginosa [24]): 512 µg/mL; MIC (Pseudomonas aeruginosa [25]): 512 µg/mL; MIC (Pseudomonas aeruginosa [26]): 512 µg/mL; MIC (Pseudomonas aeruginosa [27]): 128 µg/mL; MIC (Pseudomonas aeruginosa [28]): 128 µg/mL; MIC (Pseudomonas aeruginosa [29]): 128 µg/mL; MIC (Pseudomonas aeruginosa [30]): 128 µg/mL; MIC (Pseudomonas aeruginosa [31]): 128 µg/mL; MIC (Pseudomonas aeruginosa [32]): 128 µg/mL; MIC (Pseudomonas aeruginosa [33]): 128 µg/mL; fractional inhibitory concentration index (FICI) (Pseudomonas aeruginosa [34]): 1.25; fractional inhibitory concentration index (FICI) (Pseudomonas aeruginosa [35]): 1.25; fractional inhibitory concentration index (FICI) (Pseudomonas aeruginosa [36]): 0.375; fractional inhibitory concentration index (FICI) (Pseudomonas aeruginosa [37]): 1.25 |
| N=C(N)NCCC[C@H](NC(=O)[C@@H](N)Cc1ccccc1)C(=O)Nc1ccc2ccccc2c1 [PABETAN] (H-Phe-Arg-βNA) | 512 µg/mL | 0.375 | > 100 µM | > 100 µM | 512 µg/mL (≈ 1150 µM) | 512 µg/mL (≈ 1150 µM) | 8 µg/mL | 0.5 | 0.5 | 0.75 | 0.5 | 0.375 | 0.375 | 0.313 | 0.5 | 0.313 | 0.313 | 0.5 | 0.281 | <0.375 | MIC (Pseudomonas aeruginosa [5]; read-out: MIC): 512 µg/mL (≈ 1150 µM); MIC (Pseudomonas aeruginosa [22]): 512 µg/mL; MIC (Pseudomonas aeruginosa [23]): 512 µg/mL; MIC (Pseudomonas aeruginosa [24]): 512 µg/mL; MIC (Pseudomonas aeruginosa [25]): 512 µg/mL; MIC (Pseudomonas aeruginosa [26]): 512 µg/mL; MIC (Pseudomonas aeruginosa [27]): 128 µg/mL; MIC (Pseudomonas aeruginosa [28]): 128 µg/mL; MIC (Pseudomonas aeruginosa [29]): 128 µg/mL; MIC (Pseudomonas aeruginosa [30]): 128 µg/mL; MIC (Pseudomonas aeruginosa [31]): 128 µg/mL; MIC (Pseudomonas aeruginosa [32]): 128 µg/mL; MIC (Pseudomonas aeruginosa [33]): 128 µg/mL; fractional inhibitory concentration index (FICI) (Pseudomonas aeruginosa [34]): 1.25; fractional inhibitory concentration index (FICI) (Pseudomonas aeruginosa [35]): 1.25; fractional inhibitory concentration index (FICI) (Pseudomonas aeruginosa [36]): 0.5; fractional inhibitory concentration index (FICI) (Pseudomonas aeruginosa [37]): 1.25 |
